Several values for one entry are separate records, joined by “and”; a condition that tells them apart may be missing. Equal values may be shown once. Read-outs that look alike come from different tables or passages of the source.
How the values were obtained:
[1] = system: H1650 (lung adenocarcinoma); assay: WST-1 cell viability analysis, H1650; type: cell-based; settings: Homo sapiens
Description: (§1) The cell numbers were counted and reseed as 2×10^6 in cell culture plate/flask. Then, the culture medium were added to a volume of 10 ml, and the cells were cultured for 2-3 days. Then, the cells were suspended for loading into 96-well plates. The number of cells was 3000 and the volume of the culture medium was 100 μl each well.
(§2) Removing the original culture medium from 96-well plate. Then add 100 μl of commercially drug at a concentration of 10 μM per well. After 72 hours, add the diluted WST-1 reagent to the well with 100 μl/well, and the diluted WST-1 reagent was acquired from the dilution of 9:1 medium and WST-1 stock reagent. Finally, the total volume of each well was 200 μl/well. Culture the 96-well plate at 37° C. for 30 to 90 minutes. Detecting and calculate the survival rate of each cancer cells with an ELISA reader at OD450 nm.

[2] = system: bladder cancer cell line TSGH; assay: WST-1 cell viability analysis, TSGH; type: cell-based; settings: 72 hours, read-out: viability (survival rate) of TSGH cells
Description: as §1, §2

[3] = system: 786-O (Renal adenocarcinoma); assay: WST-1 cell viability analysis, 786-O; type: cell-based; settings: Homo sapiens
Description: as §1, §2

[4] = system: ovarian cancer cell line TOV-21G; assay: WST-1 cell viability analysis, TOV-21G; type: cell-based; settings: Homo sapiens, TOV21G
Description: as §1, §2

[5] = system: AGS (Gastric Adenocarcinoma); assay: WST-1 cell viability analysis, AGS; type: cell-based; settings: Homo sapiens
Description: as §1, §2

[6] = system: Hep3B (hepatocellular carcinoma); assay: WST-1 cell viability analysis, Hep3B; type: cell-based; settings: Homo sapiens
Description: as §1, §2

[7] = system: pancreatic cancer cell line AsPC-1; assay: WST-1 cell viability analysis, AsPC-1; type: cell-based; settings: Homo sapiens
Description: as §1, §2

[8] = system: SAS (Tongue squamous cell carcinoma); assay: WST-1 cell viability analysis, SAS; type: cell-based
Description: as §1, §2

[9] = system: A375 (amelanotic melanoma); assay: WST-1 cell viability analysis, A375; type: cell-based; settings: Homo sapiens, A-375, 10 μM, 72 hours, read-out: viability (survival rate) of A375 cells
[10] = WST-1 cell viability analysis, HEK293; type: cell-based; settings: human
Description: as §1, §2

[11] = WST-1 cell viability analysis, BEAS-2B; type: cell-based; settings: human
From the text: Subculture the different types of cancer cell lines. The cancer cells includes lung cancer, gastric cancer, hepatic cancer, colon cancer, skin cancer, cervical cancer, prostate cancer, bladder cancer, breast cancer, leukemia, pancreatic cancer, ovarian cancer, tongue cancer, osteosarcoma, and renal cancer. The normal cells used in the control group included kidney cell (HEK293) and human bronchial epithelial cell line BEAS-2B (as shown in Table 1).
as §1, §2

cervical cancer cells = assay: Summary of cell viability, cervical cancer; type: cell-based; settings: 72 hours, summary for cervical cancer, read-out: Inhibitory effect, cervical cancer
Description: as §1, §2
As a result in the experiments of the present invention.

[12] = Animal model test, body weight and health status of mice; type: in vivo, female mice (BALB/cAnN.Cg-Foxn1^nu/CrlNarl); settings: for weight: single mice A-C
Description: In this invention, the female mice were (BALB/cAnN.Cg-Foxn1^nu/CrlNarl) purchased from National Laboratory Animal Center (Taiwan)). The weight of the mice were 21±1 g. These mice were subcutaneously injected with gastric cancer cells (AGS) and then put these mice into different cages at random. The drug test experiment was divided into three groups, include “normal control group”, “low dose group (100 mg/kg/day)”, and “high dose group (200 mg/kg/day)”. These mice were then injected test drug intraperitoneally once daily […]. The tumor sizes and body weight were measured twice a week. The tumor sizes were measured and calculated by formula: (L×W^2)/2. L represents the tumor longest length. W represents the tumor shortest diameter.

CC1=C(C(=O)OC(C)C)C(c2cccc([N+](=O)[O-])c2)C(C(=O)OC2CN(C(c3ccccc3)c3ccccc3)C2)=C(N)N1 (stereo not shown) [Azelnidipine]
viability at 10 µM ([1]; NCI-H1650, 10 μM, 72 hours, run 1-10 min, read-out: viability (survival rate) of H1650 cells): 28.8%
viability at 10 µM ([1]; NCI-H1650, 10 μM, 72 hours, run 2-20 min, read-out: viability (survival rate) of H1650 cells): 26.5%
viability at 10 µM ([1]; NCI-H1650, 10 μM, 72 hours, run 3-20 min, read-out: viability (survival rate) of H1650 cells): 40.5%
viability at 10 µM ([1]; NCI-H1650, 10 μM, 72 hours, run 4-20 min, read-out: viability (survival rate) of H1650 cells): 62.7%
viability at 10 µM ([1]; NCI-H1650, 72 h, 10 μM, average of 4 tests, read-out: Average viability of H1650 cells): 39.7%
viability at 10 µM ([2]; run 0510-10 min): 151%
viability at 10 µM ([2]; run 0512-10 min): 117%
viability at 10 µM ([2]; run 0515-10 min): 72%
viability at 10 µM ([2]; run 0517-10 min): 120%
viability at 10 µM ([3]; 786-0, 10 μM, 72 hours, run 0524-10 min, read-out: viability (survival rate) of 786-O cells): 88.6%
viability at 10 µM ([3]; 786-0, 10 μM, 72 hours, run 0526-10 min, read-out: viability (survival rate) of 786-O cells): 79.7%
viability at 10 µM ([3]; 786-0, 10 μM, 72 hours, run 0529-10 min, read-out: viability (survival rate) of 786-O cells): 66.5%
viability at 10 µM ([3]; 786-0, 10 μM, 72 hours, run 0531-10 min, read-out: viability (survival rate) of 786-O cells): 112%
viability at 10 µM ([3]; 786-0, 72 h, 10 μM, average of 4 tests, read-out: average viability of 786-O cells): 86.8%
viability at 10 µM ([3]; 786-0, 72 h, 10 μM, summary (786-O), read-out: Inhibitory effect, Kidney cancer): 86.8%
viability at 10 µM ([4]; 72 h, average of 4 tests, read-out: average viability of TOV-21G cells): 27.2%
viability at 10 µM ([4]; 72 hours, run 4-30 min, read-out: viability (survival rate) of TOV-21G cells): 60.1%
viability at 10 µM ([4]; 72 hours, run 7-3-30 min, read-out: viability (survival rate) of TOV-21G cells): 15.6%
viability at 10 µM ([4]; 72 hours, run 7-4-30 min, read-out: viability (survival rate) of TOV-21G cells): 13.3%
viability at 10 µM ([4]; 72 hours, run 7-7-30 min, read-out: viability (survival rate) of TOV-21G cells): 19.6%
viability at 10 µM ([5]; 72 h, average of 4 tests, read-out: average viability of AGS cells): 90.2%
viability at 10 µM ([5]; 72 hours, run 0510-10 min, read-out: viability (survival rate) of AGS cells): 120%
viability at 10 µM ([5]; 72 hours, run 0512-10 min, read-out: viability (survival rate) of AGS cells): 124%
viability at 10 µM ([5]; 72 hours, run 0515-10 min, read-out: viability (survival rate) of AGS cells): 42.1%
viability at 10 µM ([5]; 72 hours, run 0517-10 min, read-out: viability (survival rate) of AGS cells): 74.3%
viability at 10 µM ([6]; 72 h, average of 4 tests, read-out: Average viability of Hep3B cells): 98.6%
viability at 10 µM ([6]; 72 hours, run 0612-20 min, read-out: viability (survival rate) of Hep3B cells): 114%
viability at 10 µM ([6]; 72 hours, run 0614-20 min, read-out: viability (survival rate) of Hep3B cells): 91.5%
viability at 10 µM ([6]; 72 hours, run 0616-20 min, read-out: viability (survival rate) of Hep3B cells): 97.9%
viability at 10 µM ([6]; 72 hours, run 0619-20 min, read-out: viability (survival rate) of Hep3B cells): 90.7%
viability at 10 µM ([7]; ASPC1, 10 μM, 72 hours, run 1-4-30 min, read-out: viability (survival rate) of AsPC-1 cells): 58.6%
viability at 10 µM ([7]; ASPC1, 10 μM, 72 hours, run 1-7-3-30 min, read-out: viability (survival rate) of AsPC-1 cells): 104%
viability at 10 µM ([7]; ASPC1, 10 μM, 72 hours, run 1-7-4-30 min, read-out: viability (survival rate) of AsPC-1 cells): 46.1%
viability at 10 µM ([7]; ASPC1, 10 μM, 72 hours, run 1-7-7-30 min, read-out: viability (survival rate) of AsPC-1 cells): 13.7%
viability at 10 µM ([7]; ASPC1, 72 h, 10 μM, average of 4 tests, read-out: Average viability of AsPC-1 cells): 55.6%
viability at 10 µM ([8]; 72 h, average of 4 tests, read-out: Average viability of SAS cells): 76.8%
viability at 10 µM ([8]; 72 h, summary (SAS), read-out: Inhibitory effect, tongue cancer): 76.8%
viability at 10 µM ([8]; 72 hours, run 6-26-10 min, read-out: viability (survival rate) of SAS cells): 69.9%
viability at 10 µM ([8]; 72 hours, run 6-28-10 min, read-out: viability (survival rate) of SAS cells): 66%
viability at 10 µM ([8]; 72 hours, run 6-30-10 min, read-out: viability (survival rate) of SAS cells): 66.7%
viability at 10 µM ([8]; 72 hours, run 7-3-10 min, read-out: viability (survival rate) of SAS cells): 105%
viability at 10 µM ([9]; run 0602-30 min): 124%
viability at 10 µM ([9]; run 0607-10 min): 76%
viability at 10 µM ([9]; run 0609-10 min): 105%
viability at 72 h, 10 µM ([10]; HEK293 cells (normal kidney cell line), summary (HEK293), read-out: Inhibitory effect, Normal cell: Kidney cell): 94.2%
viability at 72 h, 10 µM ([10]; HEK293 normal kidney cells, average of 4 tests, read-out: Average viability of HEK293 cells): 94.2%
viability at 72 h, 10 µM ([11]; BEAS-2B bronchial epithelial cells, run 0510-10 min, read-out: viability (survival rate) of BEAS-2B cells): 61.3%
viability at 72 h, 10 µM ([11]; BEAS-2B cells (normal bronchial epithelial cell line), average of 4 tests, read-out: average viability of BEAS-2B cells): 77.5%
viability at 72 h, 10 µM ([11]; BEAS-2B cells (normal bronchial epithelial cell line), run 0512-10 min, read-out: viability (survival rate) of BEAS-2B cells): 61.8%
viability at 72 h, 10 µM ([11]; BEAS-2B cells (normal bronchial epithelial cell line), run 0515-10 min, read-out: viability (survival rate) of BEAS-2B cells): 102%
viability at 72 h, 10 µM ([11]; BEAS-2B cells (normal bronchial epithelial cell line), run 0517-10 min, read-out: viability (survival rate) of BEAS-2B cells): 85.4%
viability at 10 µM (cervical cancer cells): 87%
health status / death of tested mice during the treatment (in words) ([12]; both high and low doses): without death
weight ([12]; high dose (200 mg/kg/day) i.p., Fifth measurement, 200 mg/kg/day): 20 g and 21 g
weight ([12]; high dose (200 mg/kg/day) i.p., First measurement, 200 mg/kg/day): 20 g and 19.5 g
weight ([12]; high dose (200 mg/kg/day) i.p., Fourth measurement, 200 mg/kg/day): 20 g and 21 g
weight ([12]; high dose (200 mg/kg/day) i.p., Second measurement, 200 mg/kg/day): 19 g and 20 g
weight ([12]; high dose (200 mg/kg/day) i.p., Third measurement, 200 mg/kg/day): 20.5 g and 19 g and 20 g
weight ([12]; low dose (100 mg/kg/day) i.p., Fifth measurement, 100 mg/kg/day): 20 g and 21 g
weight ([12]; low dose (100 mg/kg/day) i.p., First measurement): 21 g
weight ([12]; low dose (100 mg/kg/day) i.p., Fourth measurement, 100 mg/kg/day): 20 g and 21 g
weight ([12]; low dose (100 mg/kg/day) i.p., Second measurement, 100 mg/kg/day): 20 g and 19 g
weight ([12]; low dose (100 mg/kg/day) i.p., Third measurement, 100 mg/kg/day): 19.5 g and 19 g and 18.5 g
weight of mice during the experiment (in words) ([12]; low dose and high dose): did not show a significant decrease

Reference: patent US20170312260A1 (LAUNX BIOMEDICAL CO., LTD., priority 2014, published 2017)
